Reference: patent publication US20050272766A1, “1-Glyoxylamide indolizines for treating lung and ovarian cancer” (Synta Pharmaceuticals Corp., priority 2004, published 2005)
Marks after values point to notes of the source that are not given here.

Key:
[1] = Body weight of treated mice (summary statement, Examples 1-4); type: in vivo
Experimental: (§1) Tumor size and body weight were scored at least twice a week throughout the experiment. Tumor size was captured utilizing CD-10C compatible electric calipers (Mitsutoyo Corp., Kawasaki) and animal weight was automatically captured from the balance (A/D, Tokyo). The tumor volume was calculated by the following formula: [Tumor volume=(Length×Width×Width)/2]. The relative tumor volume (RV) was calculated as RV=Vn/Vo, where Vn: tumor volume on day n, and Vo: initial tumor volume. Judgment was performed one day (Examples 6 and 9) or three days (Examples 7 and 8) after the last dosing.

[2] = tested on: Ma44 human lung squamous cell carcinoma; conditions: in vivo
Experimental: (§2) Compound (1) was suspended in 1% methylcellulose solution (Wako, Osaka, 400 c.p., and distilled water) and was stored at 4° C. Paclitaxel (Sigma St. Louis, Mo.) was dissolved in dimethylsulfoxide (DMSO, Nakarai-Tesk, Tokyo) and stored at 4° C., and was prepared in a solution of 10% DMSO, 18% Cremophore RH-40 (Nikko Chemicals) and 72% distilled water before use.
(§3) Female mice, 8 weeks old (strain BALB/c-nu/nu, CLEA Japan Inc., Tokyo) were obtained and adapted for 5 days at experimental conditions and used at 10 weeks old. Experimental conditions included temperature of 21-27° C.; relative humidity of 40-70%; ventilation>10 times/hour; fluorescent light for 12-hour light (8:00-20:00)/12-hour dark; ad libitium access to food (irradiated CA-1, CLEA Japan Inc., Tokyo) and water (Osaka city tap water).
(§4) Statistical analyses versus control group and between selected groups were performed using a spreadsheet program to run Welch's test and Dunnett's multiple comparison test.
as §1
(§5) Animal experiments were performed using Tumor Measuring & Tracking System (VISIONS Co. Ltd., Tokyo). An experiment consisted of 8 mice per group (Examples 6 and 9) or 6 mice per group (Examples 7 and 8). Tumor samples were implanted subcutaneously into the back of mice (day 0). Tumor-implanted animals were randomized to groups based upon tumor volume and body weight when tumor volume reached approximately 100-200 mm^3. The control group was given vehicle (1% methylcellulose solution). The doses were calculated on the basis of up-to-date body weights of the mice (0.1 mL/10 g body weight). The mice were non-fasted during an entire course of the experiment.
(§6) Ma44 human lung squamous cell carcinoma was maintained by in vitro passage with using Eagle's Minimum Essential Medium (Nissui Pharmaceutical Co., Tokyo) supplemented with 10% fetal calf serum (Life Technologies Inc, MD). Ma44 cells (5×10^5/0.1 mL) were implanted and the animals were randomized at 11 days. Compound (1) was orally administered daily for 14 days. Paclitaxel solution (DMSO/Cremophore/distilled water) was prepared as above and administered intravenously 6 times (3 times per week×2).

RERF-LC-AI/TXL carcinoma [3] = conditions: in vivo
Experimental: as §2, §3, §4, §1, §5
(§7) The tumor sample implanted was a fragment of RERF-LC-AI/TXL carcinoma. Implanted animals were randomized at 11 days. Compound (1) was orally administered daily for 14 days. Paclitaxel solution (DMSO/Cremophore/distilled water) was prepared as above. and administered intravenously 6 times (3 times per week×2, day 11, 13, 15, 18, 20 and 22).

[4] = tested on: BG-1-TR1 human ovarian cancer; experiment: Antitumor efficacy against BG-1-TR1 human ovarian cancer implanted subcutaneously in nude mice
Experimental: (§8) Compound (1) was suspended in 1% methylcellulose solution (Wako, Osaka, 400 c.p., and distilled water) and was stored at 4° C.
as §3, §4, §1, §5
The tumor sample implanted included BG-1-TR1 cells (3×10^6/0.1 ml of 5 mg/ml matrigel solution, BD Biosciences, Bedford, Mass.). Implanted animals were randomized at 20 days. Compound (1) was orally administered daily for 14 days from day 20 to 33.

RERF-LC-AI carcinoma = experiment: Antitumor efficacy against RERF-LC-AI human lung cancer fragment implanted subcutaneously in nude mice; conditions: for % inhibition: day 26
Experimental: as §8, §3, §4
Tumor size and body weight were scored at least twice a week throughout the experiment. Tumor size was captured utilizing CD-10C compatible electric calipers (Mitsutoyo Corp., Kawasaki) and animal weight was automatically captured from the balance (A/D, Tokyo). The tumor volume was calculated by the following formula: [Tumor volume=(Length×Width×Width)/2]. The relative tumor volume (RV) was calculated as RV=Vn/Vo, where Vn: tumor volume on day n, and Vo: initial tumor volume.
Animal experiments were performed using Tumor Measuring & Tracking System (VISIONS Co. Ltd., Tokyo). […] Tumor samples were implanted subcutaneously into the back of mice (day 0). Tumor-implanted animals were randomized to groups based upon tumor volume and body weight when tumor volume reached approximately 100-200 mm^3. The control group was given vehicle (1% methylcellulose solution). The doses were calculated on the basis of up-to-date body weights of the mice (0.1 mL/10 g body weight). The mice were non-fasted during an entire course of the experiment.
The tumor sample implanted was a fragment of RERF-LC-AI carcinoma. Implanted animals were randomized at 10 days. Compound (1) was orally administered daily for 14 days.

[5] = tested on: Ma44 human lung squamous cell carcinoma; experiment: Antitumor efficacy against Ma44 human lung squamous cell carcinoma implanted subcutaneously in nude mice; conditions: for % inhibition: day 27; for RV on day 27 (Mean +/- SD), relative tumor volume: nude mice; for growth inhibition (% inhibition): p<0.01
Experimental: as §2, §3, §4, §1, §5, §6

RERF-LC-AI/TXL carcinoma [6] = experiment: Antitumor efficacy against RERF-LC-AI/TXL human lung cancer fragment implanted subcutaneously in nude mice; conditions: for % inhibition: day 24
Experimental: as §2, §3, §4, §1, §5, §7

[7] = 50 mg/kg x 14, oral daily, 5 surviving mice
[8] = 25 mg/kg x 14, oral daily, day 11-24
[9] = 20 mg/kg x 6, intravenous, day 10, 12, 14, 17, 19 and 21
[10] = 20 mg/kg, maximum tolerated dose for nude mice in this schedule

SMILES: Cc1cc(NC(=O)C(=O)c2cc(Cc3ccc(C#N)cc3)n3ccccc23)sn1 [Compound (1), 2-(3-(4-cyanobenzyl)indolizin-1-yl)-N-(3-methylisothiazol-5-yl)-2-oxoacetamide]
- change in body weight [1]: Minimal change in body weight
- mice found dead [2]: one of eight mice
- mice found dead (RERF-LC-AI/TXL carcinoma [3]): All mice
- % inhibition ([4]; 12.5 mg/kg x 14, oral daily): 27.4%
- MBWL, maximum body weight loss (% of initial) ([4]; 12.5 mg/kg x 14, oral daily): 0%
- RV (Mean +/- SD), relative tumor volume on day 34 ([4]; 12.5 mg/kg x 14, oral daily, from day 20 to 33): 1.6 ± 0.7
- body weight losses ([4]; 25 mg/kg and 50 mg/kg daily oral dosing groups): mild
- % inhibition ([4]; 25 mg/kg x 14, oral daily): 27.5%
- RV (Mean +/- SD), relative tumor volume on day 34 ([4]; 25 mg/kg x 14, oral daily, from day 20 to 33): 1.6 ± 0.5
- MBWL, maximum body weight loss (% of initial) ([4]; 25 mg/kg x 14, oral daily, maximum on d24): 1.9% (d24)
- RV (Mean +/- SD), relative tumor volume on day 34 ([4]; 50 mg/kg x 14, oral daily, from day 20 to 33): 0.9 ± 0.3
- MBWL, maximum body weight loss (% of initial) ([4]; 50 mg/kg x 14, oral daily, maximum on d34): 8.7% (d34)
- percent inhibition of cancer cells ([4]; oral administration, BG1-TR1, summary): up to 61%
- MBWL, maximum body weight loss (% of initial) (RERF-LC-AI carcinoma; 25 mg/kg x 14, oral daily): 4%
- RV on day 26 (Mean +/- SD), relative tumor volume (RERF-LC-AI carcinoma; 25 mg/kg x 14, oral daily, day 10-23, nude mice): 14.1 ± 73
- % inhibition (RERF-LC-AI carcinoma; 25 mg/kg x 14, oral daily): 64.9%
- Toxic death (RERF-LC-AI carcinoma; 50 mg/kg x 14, oral daily, 1 of 6 mice, on day 21): one of six mice
- MBWL, maximum body weight loss (% of initial) (RERF-LC-AI carcinoma; [7]): 14%
- RV on day 26 (Mean +/- SD), relative tumor volume (RERF-LC-AI carcinoma; [7]): 8.2 ± 1.9
- % inhibition (RERF-LC-AI carcinoma; 50 mg/kg x 14, oral daily): 79.7%
- Toxic death (RERF-LC-AI carcinoma; 75 mg/kg x 14, oral daily, 6 mice, on day 17-20): All mice
- percent inhibition of cancer cells (RERF-LC-AI carcinoma; oral administration, RERF-LC-AI, summary): ≤ 80%
- MBWL, maximum body weight loss (% of initial) ([5]; 25 mg/kg x 14, oral daily): 3%
- % inhibition [5, 8]: 35.2%
- RV on day 27 (Mean +/- SD), relative tumor volume [5, 8]: 10.0 ± 1.4
- body weight losses ([5]; 50 mg/kg daily oral dosing): mild
- growth inhibition (% inhibition) ([5]; 50 mg/kg daily oral dosing): 63.9%
- MBWL, maximum body weight loss (% of initial) ([5]; 50 mg/kg x 14, oral daily): 5%
- % inhibition ([5]; 50 mg/kg x 14, oral daily): 68.8%
- RV on day 27 (Mean +/- SD), relative tumor volume ([5]; 50 mg/kg x 14, oral daily): 4.8 ± 1.7
- growth inhibition (% inhibition) ([5]; lower dose, daily oral): 36.2%
- percent inhibition of cancer cells ([5]; oral administration, Ma44, summary): ≤ 64%
- MBWL, maximum body weight loss (% of initial) (RERF-LC-AI/TXL carcinoma [6]; 25 mg/kg x 14, oral daily): 1%
- RV on day 24 (Mean +/- SD), relative tumor volume (RERF-LC-AI/TXL carcinoma [6]; 25 mg/kg x 14, oral daily, from day 10 to 23, nude mice): 26.49 ± 13.41
- % inhibition (RERF-LC-AI/TXL carcinoma [6]; 25 mg/kg x 14, oral daily): 36.2%
- growth inhibition (RERF-LC-AI/TXL carcinoma [6]; 50 mg/kg daily oral dosing, evaluation day 27): 68.8%
- MBWL, maximum body weight loss (% of initial) (RERF-LC-AI/TXL carcinoma [6]; 50 mg/kg x 14, oral daily): 3%
- Toxic death (RERF-LC-AI/TXL carcinoma [6]; 50 mg/kg x 14, oral daily, 1 mouse, on day 16): Toxic
- RV on day 24 (Mean +/- SD), relative tumor volume (RERF-LC-AI/TXL carcinoma [6]; 50 mg/kg x 14, oral daily, 7 surviving mice): 15.01 ± 6.45
- % inhibition (RERF-LC-AI/TXL carcinoma [6]; 50 mg/kg x 14, oral daily): 63.9%
- percent inhibition of cancer cells (RERF-LC-AI/TXL carcinoma [6]; oral administration, RERF/TXL, summary): ≤ 67%

SMILES: CC(=O)O[C@H]1C(=O)[C@@]2(C)[C@H]([C@H](OC(=O)c3ccccc3)[C@]3(O)C[C@H](OC(=O)[C@H](O)[C@@H](NC(=O)c4ccccc4)c4ccccc4)C(C)=C1C3(C)C)[C@]1(OC(C)=O)CO[C@@H]1C[C@@H]2O [Paclitaxel, reference compound]
- % inhibition ([4]; 20 mg/kg x 6, intravenous): 8.3%
- RV (Mean +/- SD), relative tumor volume on day 34 ([4]; 20 mg/kg x 6, intravenous, day 20, 22, 24, 27, 29, 31, nude mice): 2.0 ± 0.7
- MBWL, maximum body weight loss (% of initial) ([4]; 20 mg/kg x 6, intravenous, maximum on d27): 4.5% (d27)
- antitumor activity ([4]; 20 mg/kg, maximum tolerated dose for nude mice in this schedule, BG-1 cells): neither significant nor effective
- MBWL, maximum body weight loss (% of initial) (RERF-LC-AI carcinoma; 20 mg/kg x 6, intravenous): 7%
- RV on day 26 (Mean +/- SD), relative tumor volume (RERF-LC-AI carcinoma; [9]): 3.1 ± 0.8**^e)
- % inhibition (RERF-LC-AI carcinoma; 20 mg/kg x 6, intravenous): 92.2%
- MBWL, maximum body weight loss (% of initial) ([5]; 20 mg/kg x 6, intravenous): 3%
- RV on day 27 (Mean +/- SD), relative tumor volume ([5]; 20 mg/kg x 6, intravenous, day 11, 13, 15, 18, 20 and 22): 2.8 ± 0.4^**e)
- % inhibition ([5]; 20 mg/kg x 6, intravenous): 81.8%
- antitumor activity [5, 10]: neither significant nor effective
- MBWL, maximum body weight loss (% of initial) (RERF-LC-AI/TXL carcinoma [6]; 10 mg/kg x 6, intravenous): 0%
- RV on day 24 (Mean +/- SD), relative tumor volume (RERF-LC-AI/TXL carcinoma [6]; 10 mg/kg x 6, intravenous, day 10, 12, 14, 17, 19 and 21): 31.23 ± 6.69
- % inhibition (RERF-LC-AI/TXL carcinoma [6]; 10 mg/kg x 6, intravenous): 24.8%
- MBWL, maximum body weight loss (% of initial) (RERF-LC-AI/TXL carcinoma [6]; 20 mg/kg x 6, intravenous): 0%
- RV on day 24 (Mean +/- SD), relative tumor volume (RERF-LC-AI/TXL carcinoma [6]; [9]): 32.87 ± 10.03
- % inhibition (RERF-LC-AI/TXL carcinoma [6]; 20 mg/kg x 6, intravenous): 20.9%
- growth inhibition (RERF-LC-AI/TXL carcinoma [6]; [10]): 81.8%
